Laboratory results from patent US10054583B2, “Nuclear factor-erythroid 2 related factor 2 (NRF2) biosensors and modulators of NRF2” (TEMPLE UNIVERSITY OF THE COMMONWEALTH SYSTEM OF HIGHER …, priority 2012, dated 2018).
“Also recorded” adds a separate entry of the source.

Legend:
Assay type in all cases: cell-based
[1] = system: translation of Luciferase Reporter under translational control mediated by Sg3 of Nrf2; experiment: Nrf2 translation biosensor screen: firefly luciferase reporter fused with Seg3, stop codons in between; library of 127 compounds; conditions: FIG. 3B; screen of library of 127 compounds
Text: (§1) FIGS. 3A to 3D show the construction of a translation reporter system to identify compounds that derepress Nrf2 translation. FIG. 3A is a schematic representation showing that the sequence of the firefly luciferase reporter gene was fused with the Seg3 fragment to create a translation reporter system i.e. a biosensor for Nrf2. […] A small library of 127 compounds containing more than 80 known antioxidants was screened to identify potential activators of Nrf2 translation. […] HEK 293T cells were transfected with a construct a Nrf2 lacking amino acids 17-32 to prevent the degradation mediated by Keap1.
A construct containing the luciferase gene fused with the Seg3 with stop codons in between the two fragments was developed. A library of 127 well known antioxidants was screened.
A stop codon is indicated with bold letters and a dark grey shade. The sequence corresponding to sg3 is indicated in the light grey shade area. The sequence was expressed using a plasmid with a CMV promoter.

[2] = system: Nrf2 translation (entire Nrf2 ORF mRNA); experiment: Western blot of Nrf2 translation in HEK 293T cells transfected with Nrf2 construct lacking amino acids 17-32; conditions: for Nrf2 translation (Nrf2 protein expression by blot): FIG. 3C / FIG. 4, HEK 293T cells, Nrf2 construct lacking amino acids 17-32 (no Keap1-mediated degradation)
Text: as §1
HEK293T cells were transfected with an Nrf2 construct lacking amino acids that are required for KEAP1 mediated degradation. 24 hours later the cells were treated with Apigenin in incremental doses to evaluate Nrf2 translation activation by using Western blotting.

Nrf2 = experiment: Nuclear translocation of Nrf2: subcellular fractionation and Western blot of HEK293T cells transfected with wildtype Nrf2; conditions: FIG. 6; HEK293T cells with wildtype Nrf2, harvested 12 hours after treatment, cytoplasm vs nucleus
Protocol: HEK293T cells were transfected with a plasmid containing the wildtype sequence of Nrf2. After 24 hours the cells were treated with Apigenin. After additional 12 hours, the cells were harvested and subjected to subcellular fractionation. The presence of Nrf2 in the cytoplasm and nucleus was evaluated using Western blotting. Additionally, tubulin and histone 3 were identified by Western blot to validate the subcellular fractionation.

Row | Compound | translation of the Luciferase Reporter under translational control mediated by Sg3 [1] | Nrf2 translation (Nrf2 protein expression by blot) [2] | Nrf2 translation (Nrf2 protein expression by blot) ([2]; listed as apigenin) | Nrf2 translation activation, dose dependence ([2]; FIG. 5, HEK293T cells, treated 24 hours after transfection with incremental doses, Western blotting) | nuclear translocation of Nrf2 (Nrf2)
1 | O=c1cc(-c2ccc(O)cc2)oc2cc(O)cc(O)c12 [Apigenin] | promoted the translation of Nrf2; also recorded: increased the translation | potent activator of NRF2 translation | potent inducers of Nrf2 translation; also recorded: most potent inducer of Nrf2 translation | activates Nrf2 translation in a dose-dependent manner | nuclear translocation of Nrf2
2 | CC(C)(C)c1cc(O)ccc1O [TBHQ] | – | no effect | – | – | –
3 | O=c1cc(-c2ccc(O)c(O)c2)oc2cc(O)cc(O)c12 [luteolin] | – | increase the translation of Nrf2 | – | – | –
4 | O=c1c(O)c(-c2ccc(O)c(O)c2)oc2cc(O)cc(O)c12 [quercetin] | – | increase the translation of Nrf2 | – | – | –
5 | Oc1ccc(C=Cc2cc(O)cc(O)c2)cc1 [resveratrol] | promoted the translation of Nrf2; also recorded: increased the translation | potent inducers of Nrf2 translation | – | – | –
6 | C[S+]([O-])CCCCN=C=S (centres unmarked) [sulforaphane] | – | no effect | – | – | –
